Results taken from patent US20240158446A1, “CYCLIC COMPOUND HAVING SELECTIVE INHIBITORY ACTION ON KRAS OVER HRAS AND NRAS” (CHUGAI SEIYAKU KABUSHIKI KAISHA, priority 2021, published 2024).
Read-outs that look alike come from different tables or passages of the source. *1 amine or outer side, *2 acyl side, *3 side chain or, on linkers, in order; H or OH if unused. Where a SMILES comes first, the peptide text is derived from it. Bridges are numbered along the chain shown (N, C = ends). [ ]: non-standard residue; d: D form. The star is where a group is joined. hPhe(3-Cl-4-CF3) = N[C@@H](CCc1ccc(C(F)(F)F)c(Cl)c1)C(=O)O; NPrPhe(4-CF3) = CCCN[C@@H](Cc1ccc(C(F)(F)F)cc1)C(=O)O; X19 = CCCN([C@@H](CC1CCC(F)(F)CC1)C(=O)[*:2])[*:1]; NMeGly(cPent) = CN[C@H](C(=O)O)C1CCCC1; NMeD = CN[C@@H](CC(=O)O)C(=O)O; NMeL = CN[C@@H](CC(C)C)C(=O)O; Morpholide = C1CN(*)CCO1; Ac5c = NC1(C(=O)O)CCCC1; Aze = O=C(O)[C@@H]1CCN1; Ac4c = NC1(C(=O)O)CCC1; Sar = CNCC(=O)O

Legend:
[1] = target: GDP-bound NRAS wild-type protein (Homo sapiens, UniProt P01111); test: Binding to NRAS by surface plasmon resonance (SPR), Single Cycle Kinetics; conditions: for NRAS/KRAS (ratio of KD value for NRAS to KD value for KRAS) / NRAS/KRAS (ratio of KD value with respect to NRAS to KD value with respect to KRAS): SPR, GDP-bound NRAS wild-type protein vs GDP-bound KRAS wild-type protein; for NRAS/KRAS (ratio of KD value with respect to GDP-bound NRAS wild-type protein to KD value with respect to KRAS): SPR KD ratio NRAS/KRAS, class symbols
Sequence of GDP-bound NRAS wild-type protein (P01111 whole entry): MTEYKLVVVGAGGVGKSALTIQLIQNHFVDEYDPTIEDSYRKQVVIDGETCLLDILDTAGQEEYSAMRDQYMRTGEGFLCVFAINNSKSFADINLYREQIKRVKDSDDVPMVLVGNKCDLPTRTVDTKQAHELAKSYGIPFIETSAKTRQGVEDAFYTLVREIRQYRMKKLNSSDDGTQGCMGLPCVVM

[2] = target: GDP-bound KRAS wild-type protein (Homo sapiens, UniProt P01116); test: Binding to KRAS by surface plasmon resonance (SPR), Single Cycle Kinetics; conditions: GDP-bound KRAS wild-type protein, read-out: KRAS KD
Sequence of GDP-bound KRAS wild-type protein (P01116 whole entry): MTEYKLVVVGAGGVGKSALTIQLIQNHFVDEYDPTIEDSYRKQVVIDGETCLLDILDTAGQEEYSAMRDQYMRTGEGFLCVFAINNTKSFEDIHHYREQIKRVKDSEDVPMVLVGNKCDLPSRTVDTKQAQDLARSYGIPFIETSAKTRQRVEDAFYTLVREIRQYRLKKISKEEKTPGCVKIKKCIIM

[3] = target: GDP-bound HRAS wild-type protein (Homo sapiens, UniProt P01112); test: Binding to HRAS by surface plasmon resonance (SPR), Single Cycle Kinetics; conditions: for HRAS/KRAS (ratio of KD value for HRAS to KD value for KRAS) / HRAS/KRAS (ratio of KD value with respect to HRAS to KD value with respect to KRAS): SPR, GDP-bound HRAS wild-type protein vs GDP-bound KRAS wild-type protein; for HRAS/KRAS (ratio of KD value with respect to GDP-bound HRAS wild-type protein to KD value with respect to KRAS): SPR KD ratio HRAS/KRAS, class symbols
Sequence of GDP-bound HRAS wild-type protein (P01112 whole entry): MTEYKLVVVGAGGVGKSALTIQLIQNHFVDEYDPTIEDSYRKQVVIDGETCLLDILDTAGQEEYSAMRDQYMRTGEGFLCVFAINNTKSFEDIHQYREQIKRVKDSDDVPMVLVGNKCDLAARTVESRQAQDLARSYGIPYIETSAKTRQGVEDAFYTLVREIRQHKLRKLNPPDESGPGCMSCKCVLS

[4] = SPR Single Cycle Kinetics, 1:1 binding model

| Kd [2, 4] | Structure (SMILES) | NRAS/KRAS (ratio of KD value for NRAS to KD value for KRAS) [1] | HRAS/KRAS (ratio of KD value for HRAS to KD value for KRAS) [3] | NRAS/KRAS (ratio of KD value with respect to NRAS to KD value with respect to KRAS) [1] | HRAS/KRAS (ratio of KD value with respect to HRAS to KD value with respect to KRAS) [3] | further results |
| --- | --- | --- | --- | --- | --- | --- |
| 430 pM | CCO[C@@H]1C[C@H]2C(=O)NC3(CCC3)C(=O)N(C)[C@@H](CC(C)(C)C)C(=O)N(C)[C@H](C(=O)N3CCCC3)CC(=O)N(C)[C@@H](CC)C(=O)N[C@@H]([C@@H](C)CC)C(=O)N(C)CC(=O)N(C)[C@H]3C/C=C\CCN(C3=O)[C@@H](CC3CCCCC3)C(=O)N(C)CC(=O)N[C@@H](CCc3cc(F)c(C(F)(F)F)c(F)c3)C(=O)N2C1 [PP2772] |  |  |  |  | NRAS/KRAS (ratio of KD value with respect to GDP-bound NRAS wild-type protein to KD value with respect to KRAS) [1]: B (a compound having 3 or more and less than 10 is denoted as B); HRAS/KRAS (ratio of KD value with respect to GDP-bound HRAS wild-type protein to KD value with respect to KRAS) [3]: B (a compound having 3 or more and less than 10 is denoted as B) |
| 470 pM | CCC[C@H]1C(=O)N[C@@H]([C@@H](C)CC)C(=O)N(C)CC(=O)N(C)[C@H]2C/C=C\CCN(C2=O)[C@@H](Cc2ccc(C(F)(F)F)cc2)C(=O)N(C)CC(=O)N[C@@H](CCc2ccc(CC)c(Cl)c2)C(=O)N2C[C@H](OCC)C[C@H]2C(=O)NC2(CC(C)(C)C2)C(=O)N(C)[C@@H](C2CCCC2)C(=O)N(C)[C@H](C(=O)N(C)C)CC(=O)N1C [PP2848] |  |  |  |  | NRAS/KRAS (ratio of KD value with respect to GDP-bound NRAS wild-type protein to KD value with respect to KRAS) [1]: A (a compound having 10 or more and less than 20 is denoted as A); HRAS/KRAS (ratio of KD value with respect to GDP-bound HRAS wild-type protein to KD value with respect to KRAS) [3]: A (a compound having 10 or more and less than 20 is denoted as A) |

The remaining lines, values behind:

| Structure (SMILES) | Kd [2, 4] | NRAS/KRAS (ratio of KD value for NRAS to KD value for KRAS) [1] | HRAS/KRAS (ratio of KD value for HRAS to KD value for KRAS) [3] | NRAS/KRAS (ratio of KD value with respect to NRAS to KD value with respect to KRAS) [1] | HRAS/KRAS (ratio of KD value with respect to HRAS to KD value with respect to KRAS) [3] | further results |
| --- | --- | --- | --- | --- | --- | --- |
| CCO[C@@H]1C[C@H]2C(=O)NC3(CCC3)C(=O)N(C)[C@@H](C3CCCC3)C(=O)N(C)[C@H](C(=O)N(C)C)CC(=O)N(C)[C@@H](Cc3cccc(F)c3)C(=O)N[C@@H]([C@@H](C)CC)C(=O)N(C)CC(=O)N(C)[C@H]3CCCCCN(C3=O)[C@@H](Cc3ccc(C(F)(F)F)cc3)C(=O)N(C)CC(=O)N[C@@H](CCc3cc(F)c(C(F)(F)F)c(F)c3)C(=O)N2C1 [PP0935] |  | B (a compound having 3 or more and less than 10 is denoted as B) | B (a compound having 3 or more and less than 10 is denoted as B) |  |  | Kd ([2]; SPR, Single Cycle Kinetics): 430 pM |
| CCCN1C(=O)[C@@H]2CCN2C(=O)CN(C)C(=O)[C@H]([C@@H](C)CC)NC(=O)[C@H](CC(C)C)N(C)C(=O)C[C@@H](C(=O)N(C)C)N(C)C(=O)[C@H](C2CCCC2)N(C)C(=O)C2(CCCC2)NC(=O)[C@@H]2CCCN2C(=O)[C@H](CCc2ccc(C(F)(F)F)c(Cl)c2)NC(=O)CN(C)C(=O)[C@@H]1Cc1ccc(C(F)(F)F)cc1 [PP0440] ([NMeL]I[Sar][Aze][NPrPhe(4-CF3)][Sar][hPhe(3-Cl-4-CF3)]P[Ac5c][NMeGly(cPent)][NMeD]-NMe2; lactam N-11) | 46 pM |  |  | C (A compound having a KD ratio of 0.1 or more and less than 3 is denoted as C) | B (a compound having 3 or more and less than 10 is denoted as B) |  |
| CCCN1C(=O)CN(C)C(=O)CN(C)C(=O)[C@H]([C@@H](C)CC)NC(=O)[C@H](CC(C)C)N(C)C(=O)C[C@@H](C(=O)N2CCOCC2)N(C)C(=O)[C@H](C2CCCC2)N(C)C(=O)C2(CCCC2)NC(=O)[C@@H]2CCCN2C(=O)[C@H](CCc2ccc(C(F)(F)F)c(Cl)c2)NC(=O)CN(C)C(=O)[C@@H]1CC1CCC(F)(F)CC1 [PP0526] ([NMeL]I[Sar][Sar][X19][Sar][hPhe(3-Cl-4-CF3)]P[Ac5c][NMeGly(cPent)][NMeD]-Morpholide; lactam N-11) | 74 pM |  |  | B (a compound having 3 or more and less than 10 is denoted as B) | C (A compound having a KD ratio of 0.1 or more and less than 3 is denoted as C) |  |
| CCO[C@@H]1C[C@H]2C(=O)NC3(CCC3)C(=O)N(C)[C@@H](C3CCCC3)C(=O)N(C)[C@H](C(=O)N(C)CC)CC(=O)N(C)[C@@H](C)C(=O)N[C@@H]([C@@H](C)CC)C(=O)N(C)CC(=O)N(C)[C@H]3C/C=C\CCN(C3=O)[C@@H](Cc3ccc(C(F)(F)F)cc3)C(=O)N(C)CC(=O)N[C@@H](CCc3cc(F)c(C(F)(F)F)c(F)c3)C(=O)N2C1 [PP1302, (2S,8S,12R,14S,20S,23S,27S,30S,36S,38Z)-20-cyclopentyl-8-[2-[3,5-difluoro-4-(trifluoromethyl)phenyl]ethyl]-12-ethoxy-N-ethyl-N,4,19,22,26,27,32,35-octamethyl-30-[(1S)-1-methylpropyl]-3,6,9,15,18,21,25,28,31,34,42-undecaoxo-2-[[4-(trifluoromethyl)phenyl]methyl]spiro[1,4,7,10,16,19,22,26,29,32,35-undecazatricyclo[34.5.1.0^10,14]dotetracont-38-ene-17,1′-cyclobutane]-23-carboxamide] |  |  |  |  |  | NRAS/KRAS (ratio of KD value for NRAS to KD value for KRAS) ([1]; KD ratio class): A (a compound having 10 or more and less than 20 is denoted as A); Kd ([2]; SPR, Single Cycle Kinetics, 1:1 binding model): 57 pM; HRAS/KRAS (ratio of KD value for HRAS to KD value for KRAS) ([3]; KD ratio class): A (a compound having 10 or more and less than 20 is denoted as A) |
| CCCN1C(=O)CN(C)C(=O)CNC(=O)[C@H]([C@@H](C)CC)NC(=O)[C@H](CC(C)C)N(C)C(=O)C[C@@H](C(=O)N2CCOCC2)NC(=O)[C@H](C2CCCC2)N(C)C(=O)C2(CCC2)NC(=O)[C@@H]2CCCN2C(=O)[C@H](CCc2ccc(C(F)(F)F)c(Cl)c2)NC(=O)CN(C)C(=O)[C@@H]1Cc1ccc(C(F)(F)F)cc1 [PP0326] ([NMeL]IG[Sar][NPrPhe(4-CF3)][Sar][hPhe(3-Cl-4-CF3)]P[Ac4c][NMeGly(cPent)]D-Morpholide; lactam N-11) | 1500 pM | B (a compound having 3 or more and less than 10 is denoted as B) | B (a compound having 3 or more and less than 10 is denoted as B) |  |  |  |
| CCCN1C(=O)CN(C)C(=O)CN(C)C(=O)[C@H]([C@@H](C)CC)NC(=O)[C@H](CC(C)C)N(C)C(=O)C[C@@H](C(=O)N(C)C)N(C)C(=O)[C@H](C2CCCC2)N(C)C(=O)C2(CCCC2)NC(=O)[C@@H]2CCCN2C(=O)[C@H](CCc2ccc(C(F)(F)F)c(Cl)c2)NC(=O)CN(C)C(=O)[C@@H]1Cc1ccc(C(F)(F)F)cc1 [PP0169] ([NMeL]I[Sar][Sar][NPrPhe(4-CF3)][Sar][hPhe(3-Cl-4-CF3)]P[Ac5c][NMeGly(cPent)][NMeD]-NMe2; lactam N-11) | 35 pM | B (a compound having 3 or more and less than 10 is denoted as B) | B (a compound having 3 or more and less than 10 is denoted as B) |  |  |  |
| CC[C@H](C)[C@@H]1NC(=O)[C@H](CC(F)(F)F)N(C)C(=O)C[C@@H](C(=O)N2CCOCC2)N(C)C(=O)[C@H](C2CCCC2)N(C)C(=O)C2(CCCC2)NC(=O)[C@@H]2CCCN2C(=O)[C@H](CCc2cc(F)c(C(F)(F)F)c(F)c2)NC(=O)CN(C)C(=O)[C@H](Cc2ccc(C(F)(F)F)cc2)N2CCCCC[C@@H](C2=O)N(C)C(=O)CN(C)C1=O [PP0520] | 990 pM |  |  | B (a compound having 3 or more and less than 10 is denoted as B) | B (a compound having 3 or more and less than 10 is denoted as B) |  |
| CCO[C@@H]1C[C@H]2C(=O)NC3(CCC3)C(=O)N(C)[C@@H](C3CCCC3)C(=O)N(C)[C@H](C(=O)N3CCOCC3)CC(=O)N(CC)[C@@H](CC(C)C)C(=O)N[C@@H]([C@@H](C)CC)C(=O)N(C)CC(=O)N(C)[C@H]3CC(C)=CCN(C3=O)[C@@H](Cc3ccc(C(F)(F)F)cc3)C(=O)N(C)CC(=O)N[C@@H](CCc3cc(F)c(C(F)(F)F)c(F)c3)C(=O)N2C1 [PP1044] |  | C (A compound having a KD ratio of 0.1 or more and less than 3 is denoted as C) | C (A compound having a KD ratio of 0.1 or more and less than 3 is denoted as C) |  |  | Kd ([2]; SPR, Single Cycle Kinetics): 1800 pM |
